≈ marks a conversion by molar mass, not a printed value. Where “and” joins values, the source holds several entries; their conditions need not be identical. Equal values may be shown once. Entries after “also recorded” stand apart in the source; their conditions may differ. Read-outs that look alike come from different tables or passages of the source.
Key:
[1] = Stability of solutions/formulations; type: physicochemical; conditions: for Stability in 10 wt/vol HPCD: PBS/HPCD (25:75) solution; for Stability of HPCD formulation: 10 wt/vol % HPCD, room temperature
Excerpt: (§1) This is illustrated for compound 15 in Table 7.

[2] = pH of formulation; type: physicochemical; conditions: PBS/HPCD (25:75) solution
Excerpt: as §1

[3] = Solubility in water and formulations; conditions: for Solubility in 10 wt/vol HPCD: PBS/HPCD (25:75) solution; for Solubility 10 wt/vol % HPCD water: Na salts in aqueous 10 wt/vol % HPCD; for Solubility Water: Na salts in water
Protocol: Alternatively, the sodium salt can be prepared in situ by dissolving the free acid in phosphate buffered saline (PBS) that has been buffered to a pH of 7.4. The solubility and stability of these solutions can be improved by the use of an aqueous soluble co-solvent such as, but not limited to HPCD. This solubility can be further improved by the addition of surfactants such as PEG 400. In general, the free acid is suspended in 10 wt/vol % HPDC (10 g dissolved in 100 mL water) and treated with 0.5M PBS (pH 7.4) such that the volumes are in a ratio of 75:25.

[4] = log P; type: physicochemical
[5] = system: Male Sprague-Dawley rats; assay: Rat model of cisplatin induced neuropathy (SNCV); type: in vivo; conditions: for efficacy in cisplatin model of peripheral neuropathy: dose not stated
Protocol: (§2) Male Sprague-Dawley rats were administered 2.5 mg/kg cisplatin daily, for five consecutive days to achieve a final cumulative dose of 12.5 mg/kg. On the third day following the final cisplatin injection, animals received compounds SC at concentrations of (3, 10, and 30 mg/kg). Dosing continued Monday through Friday for three consecutive weeks. The effect of cisplatin on peripheral nerve function, and the ability of the compounds to attenuate the cisplatin effect were determined after three weeks of drug treatment by measuring the sensory nerve conduction velocity (SNCV) in the caudal nerve of the tail. Stimulating electrodes were used to deliver 2 mA pulses once per second for 1.5 min. The resulting compound sensory nerve action potentials were averaged, and the mean response onset time was determined from the averaged response. Two mean response times were determined, the second being 20 mm distal from the first. The difference in onset time between the two recordings was determined and used to calculate the conductance velocity.
Male Sprague-Dawley rats (weighing 200-225 g on arrival) were intraperitoneally administered 2.5 mg/kg cisplatin daily, for five consecutive days to achieve a final cumulative dose of 12.5 mg/kg. On the third day following the final cisplatin injection, animals received compounds SC at concentrations of (3, 10, and 30 mg/kg). Dosing continued Monday through Friday for three consecutive weeks.
as §2, with “The” for “Male Sprague-Dawley rats were administered 2.5 mg/kg cisplatin daily, for five consecutive days to achieve a final cumulative dose of 12.5 mg/kg. On the third day following the final cisplatin injection, animals received compounds SC at concentrations of (3, 10, and 30 mg/kg). Dosing continued Monday through Friday for three consecutive weeks. The”, “velocity. [formula]” for “velocity.”
The results of these experiments were combined, and ANOVA was performed, followed by a Fisher LSD test.

[6] = Microsomal stability; type: in vitro ADME
[7] = system: SCG neurons; conditions: cited from earlier work
[8] = system: 15N neuroblastoma cells; assay: Alamar blue viability assay, 15N neuroblastoma; type: cell-based; conditions: cellular viability after 48 hours; compound dissolved in DMSO
Protocol: In order to investigate the anti-cancer potential of compounds represented by formula I-a, 15N neuroblastoma cells lines were treated with compound and assayed for cellular viability after 48 hours. The cellular viability of 15N neuroblastomas treated with compounds 1, 5, 6, 11, and 13 (dissolved in DMSO) are summarized in Table 5 (see Compound 152).
Compounds were tested for anti-cancer properties using the Alamar blue viability assay. Daoy human medulloblastoma cells of 15N neuroblastoma cells were plated at a density of 5000 cells per well of a 96 well plate and cultured in RPMI media supplemented with antibiotics and 5% fetal bovine serum. Cells in culture were incubated with compound for 48 hours after which time Alamar blue was added to the culture media. After 4 hours media was transferred to opaque white plates and fluorescence of transformed alamar blue was measured at excitation 535/emission 595).

[9] = Conversion to primary sulfonamide in rat primary hepatocytes; type: in vitro ADME; conditions: 90 minutes
Protocol: Compound 15 is converted to compound 1 in the presence of liver microsomes using the procedure described by Cresteil, T., et al. (Cresteil, T., et al. Am. Soc. Pharm. Exper. Therapeutics, 2002, 30, 438-445). Upwards of 50% conversion is observed after 60 minutes. When incubated with rat primary hepatocytes, the conversion of compounds 15, 37, and 44 to their respective primary sulfonamides, 1, 11, and 13, is observed.

[10] = system: sciatic nerve; conditions: 1 and 10 mg/kg; cited from earlier work
[11] = Pharmacokinetics of primary sulfonamides and Na salts (oral, SC); type: in vivo
Protocol: HPCD formulations of compounds represented by formula I also display improved pharmacokinetic properties as compared to compounds dissolved in water.
When compound 2 is administered at 10 mg/kg SC excellent plasma drug concentrations are observed_(Cmax=2.0 μg/mL, C1/2=0.8 hrs). […]

[12] = Taxol induced cell death, read-out: Taxol SCG IC50
[13] = gavage 10 mg/kg, CMC/Tween 80 (semi-)suspension

Structure (SMILES)	Stability in 10 wt/vol HPCD [1]	pH [2]	Solubility in 10 wt/vol HPCD [3]	log P [4]	other results
CC(=O)NS(=O)(=O)c1nn2cc(-c3ccc(N4CCOCC4)cc3)nc2s1 [Compound 31]	>4 weeks	7.4	10000 µg/mL (≈ 24.5 mM)	2.48	Cisplatin-induced attenuation of SNCV ([5]; 30 mg/kg SC): protective activity
NS(=O)(=O)c1nn2cc(-c3ccc(N4CCOCC4)cc3)nc2s1 [Compound 5]	–	–	–	–	Microsomal Stability (1 hr) [6]: 100%; IC50 [7, 12]: 7 µM; IC50 ([7]; anti-NGF induced cell death, read-out: anit-NGF SCG IC50): 22 µM; IC50 [8]: ~20 µM and 20 µM
[NH-]S(=O)(=O)c1nn2cc(-c3ccc(N4CCOCC4)cc3)nc2s1.[Na+] [Compound 6]	–	–	–	–	Stability of HPCD formulation [1]: >14 days; Cisplatin-induced loss in SNCV ([5]; 10-30 mg/kg, data not shown): protective; efficacy in cisplatin model of peripheral neuropathy [5]: efficacy; Solubility 10 wt/vol % HPCD water [3]: 15000 µg/mL; Solubility Water [3]: 2300 µg/mL
COCC(=O)NS(=O)(=O)c1nn2cc(-c3ccc(Oc4ccc(Cl)cc4)cc3)nc2s1 [Compound 45]	–	–	–	–	Cisplatin-induced attenuation of SNCV ([5]; 30 mg/kg SC): protective activity
NS(=O)(=O)c1nn2c(Br)c(-c3ccccc3)nc2s1 [5-Br-6-Ph-ITS, 5-Bromo-6-phenylmidazo[2,1-b]-1,3,4,-thiadiazole-2-sulfonamide, reference compound]	–	–	–	–	degradation in microsomal fractions [6]: rapidly degraded; also recorded: rapidly consumer by microsomal fractions; Microsomal Stability (1 hr) [6]: 0%; IC50 [8]: 3 µM
CC(C)(C)OC(=O)NCC(=O)NS(=O)(=O)c1nn2cc(-c3ccccc3)nc2s1 [Compound 18]	>4 weeks	7.4	10000 µg/mL (≈ 22.9 mM)	3.32	–
COCC(=O)NS(=O)(=O)c1nn2cc(-c3ccc(-c4cccc(C(F)(F)F)c4)cc3)nc2s1 [Compound 39]	>1 weeks	7.4	10000 µg/mL (≈ 20.1 mM)	4.85	Cisplatin-induced attenuation of SNCV ([5]; 30 mg/kg SC): protective activity
[NH-]S(=O)(=O)c1nn2cc(-c3ccc(-c4cccc(C(F)(F)F)c4)cc3)nc2s1.[Na+] [Compound 12]	–	–	–	–	Stability of HPCD formulation [1]: >14 days; Cisplatin-induced loss in SNCV ([5]; 10-30 mg/kg, data not shown): protective; efficacy in cisplatin model of peripheral neuropathy [5]: efficacy; Solubility 10 wt/vol % HPCD water [3]: 4000 µg/mL; Solubility Water [3]: 1400 µg/mL
COc1cccc(-c2ccc(-c3cn4nc(S(N)(=O)=O)sc4n3)cc2)c1 [Compound 9]	–	–	–	–	Microsomal Stability (1 hr) [6]: 74%; IC50 [7, 12]: 3 µM; IC50 [8]: 5 µM
O=C(O)CCC(=O)NS(=O)(=O)c1nn2cc(-c3ccccc3)nc2s1 [Compound 22]	>4 weeks	7.4	8000 µg/mL (≈ 21 mM)	2.26	–
CC(C)(C)OC(=O)NS(=O)(=O)c1nn2cc(-c3ccc(-c4cccc(C(F)(F)F)c4)cc3)nc2s1 [Compound 43]	>1 weeks	7.4	5000 µg/mL (≈ 9.53 mM)	5.76	–
NS(=O)(=O)c1nn2cc(-c3ccc4c(c3)OCCCO4)nc2s1 [Compound 7]	–	–	–	–	IC50 [7, 12]: 7 µM
CC(=O)NCC(=O)NS(=O)(=O)c1nn2cc(-c3ccccc3)nc2s1 [Compound 20]	>4 weeks	7.4	10000 µg/mL (≈ 26.4 mM)	1.45	–
CC(=O)NS(=O)(=O)c1nn2cc(-c3ccc(Oc4ccc(Cl)cc4)cc3)nc2s1 [Compound 44]	–	–	–	–	conversion rate to primary sulfonamide [9]: 12%
CSCCC(NC(=O)OC(C)(C)C)C(=O)NS(=O)(=O)c1nn2cc(-c3ccccc3)nc2s1 (stereo not shown) [Compound 23]	>1 weeks	7.4	5000 µg/mL (≈ 9.77 mM)	3.37	–
[NH-]S(=O)(=O)c1nn2cc(-c3ccc(Oc4ccc(Cl)cc4)cc3)nc2s1.[Na+] [Compound 14]	–	–	–	–	Stability of HPCD formulation [1]: >14 days; Cisplatin-induced attenuation of SNCV ([5]; 10 mg/kg): prevented; Cisplatin-induced loss in SNCV ([5]; 10 and 30 mg/kg): prevented; efficacy in cisplatin model of peripheral neuropathy [5]: efficacy; Solubility 10 wt/vol % HPCD water [3]: 20000 µg/mL; Solubility Water [3]: 10000 µg/mL
COc1cccc(-c2ccc(-c3cn4nc(S([NH-])(=O)=O)sc4n3)cc2)c1.[Na+] [Compound 10]	–	–	–	–	Stability of HPCD formulation [1]: >14 days; Cisplatin-induced loss in SNCV ([5]; 10-30 mg/kg, data not shown): protective; efficacy in cisplatin model of peripheral neuropathy [5]: efficacy; Solubility 10 wt/vol % HPCD water [3]: 10000 µg/mL; functional recovery (toe spread) [10]: improved recovery
[NH-]S(=O)(=O)c1nn2cc(-c3ccccc3)nc2s1.[Na+] [Compound 2]	–	–	–	–	Stability of HPCD formulation [1]: >14 days; C1/2 ([11]; SC 10 mg/kg): 0.8 h; plasma Cmax ([11]; SC 10 mg/kg, 10 wt/vol % HPCD solution): 2000 ng/mL; C1/2 [11, 13]: 0.9 h; oral bioavailability [11, 13]: improved; Cmax ([11]; gavage 10 mg/kg, aqueous 0.5 wt/vol % CMC/0.5 wt/vol % Tween 80 (semi-)suspension): 560 ng/mL; Cisplatin-induced loss in SNCV ([5]; 10-30 mg/kg, data not shown): protective; efficacy in cisplatin model of peripheral neuropathy [5]: efficacy; Solubility 10 wt/vol % HPCD water [3]: 20000 µg/mL; Solubility Water [3]: 10000 µg/mL; functional recovery (toe spread) [10]: improved recovery

More lines, main results first:

Stability in 10 wt/vol HPCD [1]	pH [2]	Solubility in 10 wt/vol HPCD [3]	log P [4]	Structure (SMILES)	other results
>1 weeks	7.4	5000 µg/mL (≈ 10.1 mM)	6.26	CCCC(=O)NS(=O)(=O)c1nn2cc(-c3ccc(-c4cccc(C(F)(F)F)c4)cc3)nc2s1 [Compound 40]	–
>1 weeks	7.4	10000 µg/mL (≈ 21.4 mM)	5.19	CC(=O)NS(=O)(=O)c1nn2cc(-c3ccc(-c4cccc(C(F)(F)F)c4)cc3)nc2s1 [Compound 37]	dissolution ([3]; 25 mg in 1 mL PEG 400/ethanol (50:50) + ethanolamine (20 μL)): clear solution
–	–	–	2.14	COCC(=O)NS(=O)(=O)c1nn2cc(-c3ccc(N4CCOCC4)cc3)nc2s1 [Compound 32]	–
>1 weeks	7.4	10000 µg/mL (≈ 18.5 mM)	4.96	COCCOCC(=O)NS(=O)(=O)c1nn2cc(-c3ccc(-c4cccc(C(F)(F)F)c4)cc3)nc2s1 [Compound 41]	–
>4 weeks	7.4	10000 µg/mL (≈ 17.1 mM)	4.35	COCCOCCOCC(=O)NS(=O)(=O)c1nn2cc(-c3ccc(-c4cccc(C(F)(F)F)c4)cc3)nc2s1 [Compound 42]	–
>4 weeks	7.4	4000 µg/mL (≈ 11.4 mM)	3.67	CCCC(=O)NS(=O)(=O)c1nn2cc(-c3ccccc3)nc2s1 [Compound 16]	–

Source: US20070112043A1, “Acylated and non-acylated imidazo[2,1-b]-1,3,4,-thiadiazole-2-sulfonamides, and uses thereof” (priority 2003, published 2007)
